Assay results: patent US6235707A, “Anticoagulant peptidyl-arginine aldehyde derivatives” (Gyogyszerkutato Intezet Kft., priority 1996, dated 2001)
Where two headings read alike, the source gives them in different places.

Key:
citrate plasma = assay: activated partial thromboplastin time (APTT) plasma clotting test; assay type: biochemical; details: Table 3; twofold prolongation compared to control; read-out: A: anticoagulant IC50, APTT
Experimental: Anticoagulant activity (i.e. inhibition of the proteolytic reactions in the process) is measured by anticoagulant tests, e.g. in the thrombin time (TT), activated partial thromboplastin time (APTT) and prothrombin time (PT) tests [E. J. W. Bovie et al., Mayo Clinic Laboratory Manual of Haemostasis; W. B. Saunders Co., Philadelphia (1971)]. Plasma, inhibited in spontaneous coagulation, e.g. citrate-plasma, is made to coagulate and the required coagulation time is measured. Upon the action of anticoagulants the coagulation time is prolonged proportionally to the inhibition of the reaction(s) in the process. The anticoagulant effect can be characterised by the substance concentration required to prolong the coagulation time twofold compared to the control (IC50). The effect of anticoagulants on individual coagulant proteases is measured by the amidolytic method [R. Lottenberg et al., Methods in Enzymol. 80, 341 (1981); G. Cleason, Blood Coagulation and Fibrinolysis 5, 411 (1994)]. The isolated active factor (e.g. thrombin, fXa) and its chromogen or fluorogen peptide-amide substrate are reacted in the presence or absence of the inhibitor, resp. The enzyme inhibiting action is characterised by the inhibitory constant (IC50) measured during amidolysis.
In the TT test coagulation is initiated by the thrombin added to the citrate plasma. In the system 22 pmol/ml of thrombin is functioning and its inhibition can be measured on the fibrinogen (one of the natural substrates of thrombin) in the presence of plasma components. In the APTT and PT tests the full coagulation process takes place. Depending on the activator fX is activated either by the extrinsic or the intrinsic pathway. The generated fXa activates prothrombin to thrombin which, in turn, triggers plasma coagulation. The coagulation time is prolonged if the enzymes or one of them is inhibited by the inhibitor. In the APTT and PT tests at most 40 pmol/ml Xa can be generated (this is the full amount of factor X present in both systems) while 150 pmol/ml (APTT) and 350 pmol/ml (PT) of thrombin are generated [B. Kaiser et al., Thromb. Res. 65, 157 (1992)].
The in vitro anticoagulant effects of the compounds of general formula (I) was measured by the prothrombin time (PT), activated partial thromboplastin time (APTT) and thrombin time (TT) tests [D. Bagdy et al., Thromb. Haemost. 67, 325 (1992)]. The fxa-inhibiting effect of the compounds was also determined using the Bz-Ile-Glu-Gly-Arg-pNA chromogen substrate (see method M6).

urokinase (UK) = urokinase (UK) (Homo sapiens, UniProt P00749); assay: fibrin-plate method, plasmin formation induced by urokinase; assay type: biochemical
Source text: The inhibitory effect of the new compounds of the invention on plasmin (PL) as well as on plasmin formation induced by tissue plasminogen activator (tPA) and urokinase (UK) was examined by the fibrin-plate method [D. Bagdy et al.: Thromb. Haemost. 67, 325 (1992)]. Compounds C1 and C5 served as controls. […] V. Jackson et al.: J. Cardiovasc. Pharmacol. 21, 587 (1993))]. In Table 4 the results obtained with the new compounds 1 and 2 as well as those with controls C1 and C5 are presented as an example.

[1] = tested on: New Zealand white rabbits; assay: ex vivo APTT in citrate plasma of rabbits after p.o. dosing; design: species or system rabbit; details: p.o. 5 mg/kg
Experimental: (§1) The anticoagulant and platelet aggregation inhibiting effect of the compounds of general formula (I) was studied in New Zealand white rabbits ex vivo according to D. Bagdy et al. [Thromb. Haemost. 67, 357 (1992)]. The compounds were dissolved in buffered isotonic saline solution and administered i.v. (0,04-5.0 mg/kg) or by infusion (0.25-5.0 mg/kg/h) or subcutaneously (0.5-6.0 mg/kg) or p.o. (2.5-20 mg/kg). The effect of the compounds was detectable already within 30 minutes following p.o. administration, peak values were attained after 60-180 minutes and the therapeutic level was maintained dose-dependently for 3→6 hours.
(§2) The in vivo effect of ethoxycarbonyl-3-cyclobutyl-D-alanyl-L-prolyl-L-arginine aldehyde (1) is presented in detail in Tables 6 and 7. The corresponding values of C1 are listed as controls. The compound was administered p.o. in doses of 5 mg/kg. The blood samples drawn from the caudal vein in every 30-60 minutes were analysed. The whole blood clotting time (WBCT) and the inhibition of thrombin-induced blood platelet aggregation (PAI) were determined. The activated partial thromboplastin time (APTT) and the thrombin time (TT) in the citrate plasma obtained from the blood sample were also measured. The APTT and TT values are compiled in Table 6 and the WBCT and PAI values in Table 7.

[2] = tested on: thrombin-induced blood platelet aggregation; assay: ex vivo inhibition of thrombin-induced blood platelet aggregation (PAI) in rabbits after p.o. dosing; design: species or system rabbit; details: Oryctolagus cuniculus, Platelet, po, p.o. 5 mg/kg, read-out: PAI (%), percentual inhibition of platelet aggregation
Experimental: as §1, §2

[3] = tested on: New Zealand white rabbits; assay: anticoagulant and platelet aggregation inhibiting effect in rabbits ex vivo, time course; design: species or system rabbit; details: p.o. 5 mg/kg
Experimental: as §1, §2

Question: How did the IC50 (citrate plasma) turn out when `CCOC(=O)N[C@H](CC1CCC1)C(=O)N1CCC[C@H]1C(=O)N[C@H](C=O)CCCNC(=N)N` [Example 1, Ethoxycarbonyl-3-cyclobutyl-D-alanyl-L-prolyl-L-arginine aldehyde] was run?
Answer: The IC50 was 350 nM.

Question: What about the IC50 (urokinase (UK); fibrin plate, hydrolysed area reduced to 50% of control) of the same compound?
Answer: The IC50 was 120 µM.

Question: And the “B: relative efficiency, UK” value (urokinase (UK); related to the activity of C1 (1/IC50 = 1))?
Answer: Its value is 0.7.

Question: What about the “activity against UK, times lower than that of compound C5” value (urokinase (UK); text b147, third of three enzymes) of the same compound?
Answer: The value was 39 times.

Question: What about the “APTT relative clotting time” value ([1]; 0 min) of the same compound?
Answer: Its value is 1.0.

Question: What about the “APTT relative clotting time” value ([1]; 30 min) of the same compound?
Answer: Its value is 1.73 ± 0.47.

Question: What about the “APTT relative clotting time” value ([1]; 45 min) of the same compound?
Answer: The value was 1.84 ± 0.50.

Question: What about the “APTT relative clotting time” value ([1]; 60 min) of the same compound?
Answer: The value was 1.94 ± 0.51.

Question: And the “APTT relative clotting time” value ([1]; 90 min)?
Answer: The value was 1.92 ± 0.31.

Question: And the “APTT relative clotting time” value ([1]; 120 min)?
Answer: Its value is 1.75 ± 0.26.

Question: And the “APTT relative clotting time” value ([1]; 180 min)?
Answer: Its value is 1.59 ± 0.12.

Question: What about the “APTT relative clotting time” value ([1]; 240 min) of the same compound?
Answer: The value was 1.38 ± 0.08.

Question: And the “APTT relative clotting time” value ([1]; 300 min)?
Answer: Its value is 1.28 ± 0.08.

Question: And the inhibition at 5 mg/kg ([2]; 0 h, 0 min)?
Answer: The inhibition at 5 mg/kg was 1%.

Question: And the inhibition at 5 mg/kg ([2]; 0.5 h, 30 min)?
Answer: Its inhibition at 5 mg/kg is 71.3 ± 16.6%.

Question: What about the inhibition at 5 mg/kg ([2]; 0.75 h, 45 min) of the same compound?
Answer: The inhibition at 5 mg/kg was 55.8 ± 17.4%.

Question: What about the inhibition at 5 mg/kg ([2]; 1 h, 60 min) of the same compound?
Answer: Its inhibition at 5 mg/kg is 63.8 ± 21.2%.

Question: What about the inhibition at 5 mg/kg ([2]; 1.5 h, 90 min) of the same compound?
Answer: Its inhibition at 5 mg/kg is 85.6 ± 10%.

Question: What about the inhibition at 5 mg/kg ([2]; 2 h, 120 min) of the same compound?
Answer: The inhibition at 5 mg/kg was 73.6 ± 19.1%.

Question: And the inhibition at 5 mg/kg ([2]; 3 h, 180 min)?
Answer: The inhibition at 5 mg/kg was 81.8 ± 11.6%.

Question: What about the inhibition at 5 mg/kg ([2]; 4 h, 240 min) of the same compound?
Answer: Its inhibition at 5 mg/kg is 59.4 ± 19.1%.

Question: And the inhibition at 5 mg/kg ([2]; 5 h, 300 min)?
Answer: The inhibition at 5 mg/kg was 75.8 ± 11.8%.

Question: And the “duration of anticoagulant and antiaggregation effect compared to control C1” value [3]?
Answer: The value was “longer-lasting”.
